Measurements reported in US5130421A, “Production of 2',3'-dideoxy-2',3'-didehydronucleosides” (priority 1991, dated 1992).
Where two headings read alike, the source gives them in different places.

How the values were obtained:
HIV [1] = settings: cited from earlier work
HIV (LAV strain) = assay: in vitro anti-HIV efficacy (antiviral test on HIV (LAV strain)-infected CEM cells); assay type: cell-based; settings: Human immunodeficiency virus 1, CCRF-CEM, read-out: ID50 (the 50% inhibitory dose)
Description: Comparative in vitro anti-HIV efficacy^a and
^a The antiviral test was performed on HIV (LAV strain)infected CEM
^c The 50% inhibitory dose.

HIV [2] = settings: in several cell lines; cited from earlier work
[3] = cellular toxicity measured in CEM cells; assay type: cell-based; settings: human, read-out: TCID50 (the 50% tissue culture inhibitory dose)
Description: cellular toxicity^b of AZT and d4T.
^b The cellular toxicity was measured in CEM cells.
^d The 50% tissue culture inhibitory dose.

AIDS = settings: clinical trials, patients with AIDS; cited from earlier work

Compound | reported activity against HIV (HIV [1]) | also measured
O[C@H]1[C@H](O)[C@@H](O)CN2CC[C@H](O)[C@H]12 [castanospermine] | active against HIV | –
Cc1cn([C@H]2C[C@H](F)[C@@H](CO)O2)c(=O)[nH]c1=O [FDDT, 3'-fluoro-3'-deoxythymidine] | active against HIV | –
CC(=O)O[C@H]1C[C@@]2(C)[C@@H](C[C@@H](O)[C@H]3[C@@]4(C)CC[C@@H](O)[C@@H](C)[C@@H]4CC[C@@]32C)/C1=C(\CCC=C(C)C)C(=O)O [fusidic acid] | active against HIV | –
Nc1ccn([C@H]2CC[C@@H](CO)O2)c(=O)n1 [ddC, 2',3'-Dideoxycytidine] | active against HIV | –
Nc1ncnc2c1ncn2[C@H]1CC[C@@H](CO)O1 [ddA, 2',3'-dideoxyadenosine] | active against HIV | –
Nc1ccn([C@H]2C=C[C@@H](CO)O2)c(=O)n1 [d4C, 2',3'-dideoxy-2',3'-didehydrocytidine] | active against HIV | –
CC(C)(S)[C@@H](N)C(=O)O [d-penicillamine] | active against HIV | –
Cc1cn([C@H]2C=C[C@@H](CO)O2)c(=O)[nH]c1=O [d4T, 1-(2,3-Dideoxy-β-D-glycero-pent-2-enofuranosyl)thymine] | – | IC50 (HIV (LAV strain); in vitro anti-HIV efficacy, HIV (LAV strain) infected CEM cells): 0.33 µM; in vitro activity against HIV (HIV [2]): possesses in vitro activity against HIV in several cell lines; CC50 [3]: 39 µM
Cc1ccc(C(=O)Nc2ccc(S(=O)(=O)O)c3cc(S(=O)(=O)O)cc(S(=O)(=O)O)c23)cc1NC(=O)c1cccc(NC(=O)Nc2cccc(C(=O)Nc3cc(C(=O)Nc4ccc(S(=O)(=O)O)c5cc(S(=O)(=O)O)cc(S(=O)(=O)O)c45)ccc3C)c2)c1 [suramine] | active against HIV | –
NC(=O)c1ncn([C@@H]2O[C@H](CO)[C@@H](O)[C@H]2O)n1 [ribavarin] | active against HIV | –
O=C(O)P(=O)(O)O [foscarnet] | active against HIV | –
Cc1cn([C@H]2C[C@H](N=[N+]=[N-])[C@@H](CO)O2)c(=O)[nH]c1=O [AZT, 3'-azido-3'-deoxythymidine] | – | IC50 (HIV (LAV strain)): 0.45 µM; efficacy in the treatment of AIDS (AIDS): efficacious agent in the treatment of AIDS in clinical trials; CC50 [3]: 54 µM
